Laboratory results taken from patent US11066396B2 (priority 2016, dated 2021).

Legend:
HDAC8 = HDAC8 (Homo sapiens (Human), UniProt Q9BY41); settings: read-out: HDAC8 IC50
HDAC1 = HDAC1 (Homo sapiens (Human), UniProt Q13547); settings: read-out: HDAC1 IC50
HDAC5 = HDAC5 (Homo sapiens (Human), UniProt Q9UQL6); settings: read-out: HDAC5 IC50
Sequence of HDAC5 (Q9UQL6 656-1122): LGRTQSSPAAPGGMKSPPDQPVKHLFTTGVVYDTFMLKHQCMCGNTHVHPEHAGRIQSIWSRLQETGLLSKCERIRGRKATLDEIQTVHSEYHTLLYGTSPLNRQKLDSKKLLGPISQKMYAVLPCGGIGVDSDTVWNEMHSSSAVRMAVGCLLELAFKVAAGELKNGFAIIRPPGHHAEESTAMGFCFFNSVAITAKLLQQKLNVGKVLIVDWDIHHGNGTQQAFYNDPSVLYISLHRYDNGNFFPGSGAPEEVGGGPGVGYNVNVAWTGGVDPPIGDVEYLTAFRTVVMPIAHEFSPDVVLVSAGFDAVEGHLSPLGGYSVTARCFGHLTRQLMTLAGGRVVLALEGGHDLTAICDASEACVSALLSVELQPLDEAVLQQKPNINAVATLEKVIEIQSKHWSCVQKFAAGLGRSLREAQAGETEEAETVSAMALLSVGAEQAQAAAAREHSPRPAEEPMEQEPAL

Sequence of HDAC8 (Q9BY41 whole entry): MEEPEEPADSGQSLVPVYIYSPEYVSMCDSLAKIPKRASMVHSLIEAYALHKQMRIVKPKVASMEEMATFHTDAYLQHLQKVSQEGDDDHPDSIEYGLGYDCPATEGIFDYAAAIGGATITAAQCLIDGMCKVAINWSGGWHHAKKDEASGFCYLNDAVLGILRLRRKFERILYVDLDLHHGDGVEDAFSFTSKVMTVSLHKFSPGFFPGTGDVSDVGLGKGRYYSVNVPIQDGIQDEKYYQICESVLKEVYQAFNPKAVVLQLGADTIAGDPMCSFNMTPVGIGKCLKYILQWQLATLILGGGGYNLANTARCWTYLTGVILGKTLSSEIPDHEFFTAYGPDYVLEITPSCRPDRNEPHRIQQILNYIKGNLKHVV
Sequence of HDAC1 (Q13547 whole entry): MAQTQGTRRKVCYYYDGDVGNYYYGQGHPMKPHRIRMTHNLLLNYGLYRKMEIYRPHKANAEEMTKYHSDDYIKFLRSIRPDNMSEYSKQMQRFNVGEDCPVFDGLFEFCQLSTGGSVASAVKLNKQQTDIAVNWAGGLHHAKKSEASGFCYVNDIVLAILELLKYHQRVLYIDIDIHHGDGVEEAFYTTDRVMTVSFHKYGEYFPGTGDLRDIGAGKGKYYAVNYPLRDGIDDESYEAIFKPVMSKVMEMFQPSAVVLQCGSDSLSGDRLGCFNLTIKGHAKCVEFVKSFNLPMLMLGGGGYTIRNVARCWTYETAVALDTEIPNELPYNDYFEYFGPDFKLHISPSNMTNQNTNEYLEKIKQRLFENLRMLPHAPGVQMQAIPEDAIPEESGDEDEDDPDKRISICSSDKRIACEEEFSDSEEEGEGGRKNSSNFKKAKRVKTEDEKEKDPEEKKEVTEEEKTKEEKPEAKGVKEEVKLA

Row | SMILES | IC50 (HDAC8) [µM] | IC50 (HDAC1) [µM] | IC50 (HDAC5) [µM]
1 | Fc1ccccc1OCc1ccc(-c2noc(C(F)(F)F)n2)cn1 [Example 251, 2-[(2-fluorophenoxy)methyl]-5-[5-(trifluoromethyl)-1,2,4-oxadiazol-3-yl]pyridine] | 3.5 | 1.2 | 0.19
2 | O=C1COC[C@@H](c2ccccc2)N1c1ccc(-c2noc(C(F)(F)F)n2)c(F)c1 [Example 2, (R)-4-(3-Fluoro-4-(5-(trifluoromethyl)-1,2,4-oxadiazol-3-yl)phenyl)-5-phenylmorpholin-3-one] | 4.6 | 0.48 | 0.018
3 | FC(F)(F)c1nc(-c2ccnc(OCCc3cccc4cn[nH]c34)c2)no1 [Example 167] | 0.48 | 2.5 | 0.9
4 | O=C1NCCCC1NCc1ccc(-c2noc(C(F)(F)F)n2)cn1 (racemic) [Example 458, 3-[({5-[5-(trifluoromethyl)-1,2,4-oxadiazol-3-yl]pyridin-2-yl}methyl)amino]piperidin-2-one] | 2.8 | 8.3 | 0.29
5 | Fc1cc(COc2cccc3[nH]nnc23)ccc1-c1noc(C(F)(F)F)n1 [Example 227, 4-({3-fluoro-4-[5-(trifluoromethyl)-1,2,4-oxadiazol-3-yl]phenyl}methoxy)-1H-benzotriazole] | 0.73 | 1.5 | 0.065
6 | O=C(C1CCS(=O)(=O)CC1)N(Cc1ccc(-c2noc(C(F)(F)F)n2)cn1)c1cccc(C(F)(F)F)c1 [Example 456, N-({5-[5-(trifluoromethyl)-1,2,4-oxadiazol-3-yl]pyridin-2-yl}methyl)-N-[3-(trifluoromethyl)phenyl]tetrahydro-2H-thiopyran-4-carboxamide 1,1-dioxide] | 2.5 | 0.36 | 2.7
7 | O=C(NC(Cc1ccc(-c2noc(C(F)(F)F)n2)cn1)c1cccc(C(F)(F)F)c1)c1cccnc1 (racemic) [Example 487, N-(2-{5-[5-(trifluoromethyl)-1,2,4-oxadiazol-3-yl]pyridin-2-yl}-1-[3-(trifluoromethyl)phenyl]ethyl)pyridine-3-carboxamide] | 5.3 | 0.67 | 0.38
8 | O=C(NC(Cc1ccc(-c2noc(C(F)(F)F)n2)cn1)c1cccc(C(F)(F)F)c1)c1ccccn1 (racemic) [Example 488, N-(2-{5-[5-(trifluoromethyl)-1,2,4-oxadiazol-3-yl]pyridin-2-yl}-1-[3-(trifluoromethyl)phenyl]ethyl)pyridine-2-carboxamide] | – | 0.88 | 0.67
9 | Fc1cc(-c2noc(C(F)(F)F)n2)ccc1COc1ccccc1 [Example 168, 3-(3-Fluoro-4-(phenoxymethyl)phenyl)-5-(trifluoromethyl)-1,2,4-oxadiazole] | – | 15 | 1.1
10 | Fc1cc(COc2cccnn2)ccc1-c1noc(C(F)(F)F)n1 [Example 257, 3-({3-fluoro-4-[5-(trifluoromethyl)-1,2,4-oxadiazol-3-yl]phenyl}methoxy)pyridazine] | – | 6.4 | 0.2
11 | O=c1ccc2cnccc2n1Cc1ccc(-c2noc(C(F)(F)F)n2)cn1 [Example 301, 1-({5-[5-(trifluoromethyl)-1,2,4-oxadiazol-3-yl]pyridin-2-yl}methyl)-1,6-naphthyridin-2(1H)-one] | – | 0.28 | 0.037
12 | CC1(C)C(=O)NCCN1C(=O)[C@@H]1CCC(=O)N1c1ccc(-c2noc(C(F)(F)F)n2)c(F)c1 [Example 345, 4-(1-{3-fluoro-4-[5-(trifluoromethyl)-1,2,4-oxadiazol-3-yl]phenyl}-5-oxo-L-prolyl)-3,3-dimethylpiperazin-2-one] | – | 43 | 1.5
13 | COc1ncccc1OCc1ccc(-c2noc(C(F)(F)F)n2)cn1 [Example 308, 2-methoxy-3-({5-[5-(trifluoromethyl)-1,2,4-oxadiazol-3-yl]pyridin-2-yl}methoxy)pyridine] | – | 0.74 | 0.31
